A melting point compilation (Tetko et al.; mined from patent text by program, amines drawn as free bases though some values may be those of a salt)

melting point	Compound
117 to 118 °C	CC(=O)OCc1nc(C(Cl)Cl)cnc1N1C(=O)c2ccccc2C1=O
147 to 150 °C	Cc1ccc2ccccc2c1C1OC(=O)NC1=O (stereo not given)
132 to 135 °C	CS(=O)(=O)N(Cc1cccnc1)c1ccc(F)cc1F
> 285 °C	O=C(O)Cn1c(=O)c(=O)[nH]c2ccc(Cl)cc21
155 to 156 °C	CN(Cc1sc2c(=O)c(C(=O)NCc3ccc(Cl)cc3)cn(C)c2c1COCC[Si](C)(C)C)CC(O)c1cnccn1 (stereo not given)
180 °C	COc1cc(Nc2ccnc(Nc3cc(OC)c(OC)c(OC)c3)n2)cc(OC)c1
90 to 92 °C	CCCC1Oc2cc(OC)c(Cl)c(Cl)c2C1=O (stereo not given)
85 to 95 °C	Nc1nc2c(s1)CCN(CC=Cc1cccc(O)c1)CC2
188 to 190 °C	Cn1c(=O)[nH]c(=O)c2c1ncn2Cc1noc(Cc2ccccc2)n1
120 to 123 °C	CC(C(=O)O)c1ccc(-c2ccccc2F)c(F)c1 (stereo not given)
> 300 °C	Nc1cccc2c1CN(c1nc3c(cc1F)c(=O)c(C(=O)O)cn3C1CC1)C2
> 285 °C	Cc1ccc(-n2c(-c3ccc(S(C)(=O)=O)cc3)nc(O)c(C#N)c2=O)cc1C
99 to 100 °C	CCCCCCCCCCCCCCCC(=O)N[C@H]1CCCNC(=O)C1
143 to 144 °C	N#CCCNC(=O)c1cccc(-c2cccc(Oc3cncc(Cl)c3)n2)c1
138 to 141 °C	Fc1ccc2sc(-c3ccc(CBr)cc3)nc2c1
144 to 145 °C	O=C(NC(C(=O)O)C(=O)O)OCc1ccccc1
168 to 170 °C	COC(=O)C1(NS(=O)(=O)c2ccc3c(Cl)cnc(Cl)c3c2)CCOCC1
179 to 180 °C	CC[C@@]1(CC(=O)NCc2ccccc2)CCCN2CCc3c([nH]c4ccccc34)[C@@H]21
340 to 341 °C	Brc1ccc2c(c1)C1(c3ccccc3-c3ccccc31)c1cc(Br)ccc1-2
137 to 139 °C	CCCC1(CCC(C)=O)Cc2cc(CC(=O)O)c(Cl)c(Cl)c2C1=O (stereo not given)
144 to 146 °C	COC(=O)Cc1c(Cl)cc(C(=O)c2ccc(C)cc2)n1C
104 to 105 °C	O=C(O)CCC(=NOCc1ccc(OCc2csc(-c3ccccc3)n2)cc1)c1ccccc1
> 260 °C	O=C1CCC2=C1C(c1ccc(F)c(F)c1)C1=C(CCS1)N2 (stereo not given)
174 °C	CC(Cc1c[nH]c2ccccc12)(NC(=O)OC1C2CC3CC(C2)CC1C3)C(=O)NC1(CC(=O)O)CCCCC1 (stereo not given)
144 to 146 °C	CCOC(=O)c1cn(C2CC2)c2nc(N3CCC(N)C3)c(F)cc2c1=O (stereo not given)

melting point	Compound
156 to 158 °C	CCC1C=CCCC1C(O)C(N)=O (stereo not given)
109 to 110 °C	COC(=O)C(C)(C)CCOc1ccc(C2=NNC(=O)CC2)cc1Cl
217 to 218 °C	COc1c(Cl)cc(Cn2c(S)nc3ccccc32)cc1Cl
210 to 215 °C	CC(C(=O)NN1CCOCC1)C(C#N)(c1ccccc1)c1ccccc1 (stereo not given)
144 to 146 °C	CCCCc1oc2ccccc2c1-c1ncc(-c2ccc3c(Br)c(OCC#N)ccc3c2)o1
244 to 247 °C	COC(=O)c1cnc2c3cc(NC(=O)CCC4CCCC4)ccc3ncn2c1=O
173 to 174 °C	CCCCn1c(=S)c2c(ncn2CC(C)=O)n(CC)c1=O
179 to 181 °C	COc1nc(SC)nc(Cl)c1C(=O)O
135 to 137 °C	N=C(NCc1cccs1)NN=Cc1c(Cl)cccc1Cl
140 to 145 °C	CC(=CC(=O)NC(C)(C)C)OC(=O)c1cc(S(C)(=O)=O)c(Cl)cc1NCc1ccco1
137 °C	CCOC(=O)c1c(Cl)nc(-c2ccc(N)cc2)c(N)c1C(=O)OCC
172 to 174 °C	CCOCc1nc2c(N)nc3cccnc3c2n1CC(C)(C)NC(=O)NC(C)C
153 °C	Cn1cnnc1C(c1ccc(Cl)cc1)c1ccc2c(c1)c(-c1cccc(Cl)c1)cc(=O)n2C (stereo not given)
141 to 142 °C	COc1cc(CCNC(=O)C(NC(=O)OC(C)(C)C)C(C)C)ccc1OCC#Cc1ccc(Cl)cc1 (stereo not given)
53 to 55 °C	O=C(O)CC(O)c1ccc(-c2ccccc2Cl)o1 (stereo not given)
203 to 207 °C	Cc1cccc(C(O)c2cncn2C(c2ccccc2)(c2ccccc2)c2ccccc2)c1C (stereo not given)
229 to 230 °C	Cc1nccn1Cc1ccc(NC(=O)C(F)(F)F)cc1C(F)(F)F
135 to 137 °C	CN(C)/C=C/c1cc(OC2CCN(C(=O)OC(C)(C)C)CC2)ccc1C#N
145 to 147 °C	O=C(O)c1cc(OCc2ccccc2)nc(OCc2ccccc2)c1
34 to 35 °C	COc1ccc(C(=O)CCC2CCCCC2)c(OC)c1
197 to 199 °C	CC(C)C(=O)Oc1cc(-c2cn3c(n2)sc2ccccc23)cc([N+](=O)[O-])c1OC(=O)C(C)C
108 to 109 °C	OC1(c2cncs2)CCCc2cc(Cl)ccc21 (stereo not given)
206 to 208 °C	Cc1c(-c2ccc3sc(=O)n(C)c3c2)nc2ccccn12
90 to 92 °C	COc1cc(C=O)cc(OCCCC(=O)O)c1OC
233 to 235 °C	Cc1c(N2CCNCC2)nn2c(-c3ccncc3)c(-c3ccc(F)cc3)nc2c1C

melting point	Compound
105 to 110 °C	COc1ccc(CCNC(=O)C(=O)NCCCCCCN)cc1OC1CCCC1
178 to 180 °C	COc1cc(C(=O)NCCc2ccc(N)cc2)cc(OC)c1OC(C)=O
190 to 194 °C	O=C(O)C1=Cc2ccc(C(F)(F)F)cc2OC1C(F)(F)F (stereo not given)
109 to 113 °C	COc1ccc(CSc2ccncc2)c2c1OC(C)(C)C2
> 300 °C	CCOC(=O)/C=C/c1ccc(-c2nc3c(=O)n(CC4CCCCC4)c(=O)n(CC4CCCCC4)c3[nH]2)cc1
179 to 180 °C	CC(=O)Oc1ccc(-c2c3ccccc3cc3sc4ccccc4c23)cc1OC(C)=O
335 to 337 °C	O=c1c2c[nH]c3c(c-2nn1-c1ccc(Cl)cc1)COCC3
102 to 104 °C	CCCCCCCCCCCCCCCCCCNC(=O)OCC(CNS(=O)(=O)CCCCl)OC(=O)NC (stereo not given)
161 to 163 °C	COc1cc(N(C)C)c(Cl)cc1C(=O)NCC1CN(Cc2ccc(C#N)cc2)CCO1 (stereo not given)
185 to 186 °C	O=C(Cn1c(-c2ccc(F)cc2)ncc(NC(=O)OCc2ccccc2)c1=O)N[C@@H](Cc1ccccc1)C(=O)C(F)(F)C(=O)NCc1ccccc1
101 to 103 °C	OCCc1nnc(S)s1
244 to 245 °C	CNS(=O)(=O)c1ccc2c(c1)S(=O)(=O)NC1CCCN21 (stereo not given)
225 to 228 °C	COc1ccc(C(=O)c2cc3ccncc3[nH]2)cc1
222 to 227 °C	Nc1ccc(Sc2cccc3cnccc23)c([N+](=O)[O-])c1
141 to 143 °C	CCc1cc(C(=O)c2ccccc2Cl)c(-n2c(C)nnc2CNC(=O)Nc2ccccc2)s1
69 to 70 °C	C[Si](C)(C)N=C(C(=N[Si](C)(C)C)c1ccccc1)c1ccccc1
203 to 205 °C	COC(=O)c1ccc2oc3c(c(=O)c2c1)CCC3=Cc1ccccc1C
121 to 123 °C	N#CCSc1nnc2ccccn12
186 to 188 °C	CC(C)[C@]1(CCc2ccccc2)CC(O)=C(Sc2cc3sc(N)nc3cc2C(C)(C)C)C(=O)O1
232 °C	O=C(CN1C(=O)c2ccccc2C1=O)Nc1ccccc1Cc1ccccc1
58 to 60 °C	CCN(CC)C(=O)c1cc(-c2ccc(OC)cc2)ccc1OC
85 to 87 °C	Cn1c(C(F)(F)F)cc(=O)n(C)c1=O
134 to 135 °C	CN(C)c1ncnc2c1ncn2Cc1c(F)cccc1Cl
117 to 118 °C	Cc1oc(-c2ccccc2)nc1COc1ccc(COc2ncccc2C#N)cn1
70 to 73 °C	Cc1cc(C)n2nc(C)cc2n1

melting point	Compound
149 to 151 °C	COC(=O)c1ncc(Cl)nc1NCc1ccc(OC)c(Cl)c1
144 to 146 °C	CCCc1c2nc(C(=O)OC)cc(C(F)(F)C(F)(F)C(F)(F)F)c2cc2c(=O)cc(C(=O)OCC)oc12
177 to 179 °C	Cc1ccccc1N1CCN(C2CCc3cc(O)ccc3C2)CC1 (stereo not given)
262 °C	Cc1ccc(COc2ccc(CC(NC(=O)c3cn4ccc(-c5ccc(Cl)cc5)cc4n3)C(=O)O)cc2)cc1 (stereo not given)
59 to 61 °C	Fc1ccc(C2=NOC(CN=C=S)C2)cc1 (stereo not given)
178 °C	CCOC(=O)Nc1cc(Oc2ncccn2)c(Br)cc1F
244 to 245 °C	CC(=O)NC[C@H]1CC(c2ccc(-c3ccncc3)cc2)=NO1
148 °C	O=C(CC1CCC1)N[C@H]1CC[C@H](CCN2CCN(c3nccc4c3OCC4)CC2)CC1
103 to 104 °C	O=C(NCc1ccccc1)[C@@H]1CCCCN1
232 to 235 °C	C/C(=C\c1ccc(C(=O)O)cc1)c1ccc2c(c1)CC(C)(C)CC(C)(C)C2
175 to 176 °C	O=C(O)c1ccccc1-c1cc(-c2cccc(C(F)(F)F)c2)no1
74 °C	COCc1ccc(-c2ncccc2C#N)cc1
224 to 225 °C	CC(=O)NOC(=O)Cc1cnc2ccccc2c1O
206 °C	CNc1cc(Sc2ccc(O)cc2)c(N)cc1[N+](=O)[O-]
161 to 163 °C	O=C(O)c1ccc2c(c1)c(=O)[nH]c(=O)n2CCCCN1CCC(OC(c2ccccc2)c2ccccc2)CC1
139 to 140 °C	N#Cc1cc(Sc2ccc3ccccc3c2)ccc1[N+](=O)[O-]
302 to 308 °C	CCCOC(=O)Oc1ccc(-c2nc3c(N)nc(N)nc3nc2N)cc1
206 to 208 °C	O=C1c2ccccc2C(O)(c2ccc(Cl)cc2)N1CCc1ccc([N+](=O)[O-])cc1 (stereo not given)
164 to 167 °C	Cc1cc(Nc2nc(Nc3ccc(N)cc3)nc3ccccc23)[nH]n1
219 to 221 °C	CS(=O)C1C(O)C(CO)OC1n1ccc(=O)[nH]c1=O (stereo not given)
179 to 180 °C	O=C(NO)c1ccc(CNC(=O)c2[nH]c(-c3ccccc3)cc2-c2ccc([N+](=O)[O-])cc2)cc1
121 to 122 °C	CCOC(=O)/C=C/c1cc(OCc2ccc(OCc3nc(-c4ccccc4)oc3C)c(OC)c2)nn1-c1ccccc1

Compound	melting point
Cc1ncc(CO)n1-c1ccc([N+](=O)[O-])cc1C(=O)c1ccccc1F	188 to 192 °C
CP(C)(=O)OCc1ccccc1	41 to 45 °C
CCOC(=O)C=CC(=O)N1CC1C#N (stereo not given)	54 to 56 °C
